Assay type in all cases: functional
Assay [1] deals with Staphylococcus aureus. The assay is described as follows: Antibacterial activity against Staphylococcus aureus ATCC 29213.
The subject of assay [2] is Enterococcus faecalis. The assay can be described thus: Antibacterial activity against Enterococcus faecalis 201.
The test system of assay [3] is Staphylococcus aureus. The assay can be described thus: Antibacterial activity against vancomycin-resistant Staphylococcus aureus VRS2.
Assay [4] concerns Staphylococcus haemolyticus. The assay is described as follows: Antibacterial activity against Staphylococcus haemolyticus ATCC 29970.
For assay [5], the system named is Staphylococcus epidermidis. The assay is described as follows: Antibacterial activity against Staphylococcus epidermidis ATCC 35547.
Assay [6] relates to Enterococcus faecalis. The assay can be described thus: Antibacterial activity against vancomycin-resistant Enterococcus faecalis 99.
Assay [7] concerns Staphylococcus aureus. The assay is described as follows: Antibacterial activity against vancomycin-resistant Staphylococcus aureus VRS1.
The subject of assay [8] is Enterococcus faecium. The assay is described as follows: Antibacterial activity against vancomycin-resistant Enterococcus faecium 106.
Assay [9] deals with Enterococcus faecalis. The assay can be described thus: Antibacterial activity against Enterococcus faecalis ATCC 29212.

≈ marks a conversion by molar mass, not a printed value. A value given as a limit tells only on which side of the number the result lay.

What is called MIC is the smallest concentration in the dilution series that meets the test's criterion for growth inhibition. A high value points to a need for much substance. Consider `c1cc2cc(-c3nc(-c4ccc5c(c4)OCO5)no3)ccc2[nH]1`, for which, in assay [1], the MIC is ≥ 128 µg/mL.

In the case of `c1cc2cc(-c3nc(-c4ccc5c(c4)OCC5)no3)ccc2[nH]1`, the MIC in assay [1] was ≥ 128 µg/mL.

`Oc1ccc(-c2nc(-c3ccc4c(c3)C=CCO4)no2)cc1`: in [1], the MIC was ≥ 128 µg/mL.

Take `COc1ccc(-c2noc(-c3ccc(O)cc3)n2)cc1OC`: in assay [1], the minimal inhibitory concentration (MIC) was ≥ 500 µg/mL.

For `Oc1ccc(-c2nc(-c3ccc(Nc4ccc(C(F)(F)F)cc4)cc3)no2)cc1`, the MIC in assay [1] is 32 µg/mL (≈ 80.5 µM).

Turning to `Oc1ccc(-c2nc(-c3ccc(Nc4ccc(F)cc4)cc3)no2)cc1`, the MIC in assay [1] is ≥ 128 µg/mL.

Take `Oc1ccc(-c2nc(-c3ccc(Cc4ccccc4)cc3)no2)cc1`: in assay [1], the MIC is ≥ 128 µg/mL.

As to `O=C(c1ccccc1)c1ccc(-c2noc(-c3ccc(O)cc3)n2)cc1`, in assay [1], the MIC was ≥ 128 µg/mL.

`Oc1ccc(-c2nc(-c3ccc(N(Cc4ccccc4)c4ccccc4)cc3)no2)cc1`: in assay [1], the minimum inhibitory concentration (MIC) is ≥ 128 µg/mL.

For the molecule `[O-][S+](c1ccccc1)c1ccc(-c2noc(-c3ccc(O)cc3)n2)cc1` (stereo unspecified), in [1], the MIC is ≥ 128 µg/mL.

For `O=S(=O)(c1ccccc1)c1ccc(-c2noc(-c3ccc(O)cc3)n2)cc1`, the MIC in assay [1] is ≥ 128 µg/mL.

In the case of `Cn1c2ccccc2c2cc(-c3noc(-c4ccc(O)cc4)n3)ccc21`, the MIC in assay [1] was ≥ 128 µg/mL.

In the case of `Oc1ccc(-c2nc(-c3ccc4[nH]c5ccccc5c4c3)no2)cc1`, the MIC in assay [1] is ≥ 128 µg/mL.

With `Oc1ccc(-c2nc(N3CCN(c4ccccc4)CC3)no2)cc1`, the MIC in assay [1] is ≥ 128 µg/mL.

For `Oc1ccc(-c2nc(N3CCN(c4cccc(Cl)c4)CC3)no2)cc1`, in assay [1], the MIC was ≥ 128 µg/mL.

For `Clc1c[nH]nc1-c1nc(N2CCN(c3ccccc3)CC2)no1`, the MIC in assay [1] was ≥ 128 µg/mL.

The molecule `Clc1cccc(N2CCN(c3noc(-c4n[nH]cc4Cl)n3)CC2)c1` gave an MIC in [1] of 16 µg/mL (≈ 43.8 µM).

Regarding `Clc1cc(Cl)cc(N2CCN(c3noc(-c4n[nH]cc4Cl)n3)CC2)c1`, in [1], the MIC was ≥ 128 µg/mL.

Take `Clc1cccc(N2CCN(c3noc(-c4ccc5[nH]ccc5c4)n3)CC2)c1`: the MIC in assay [1] was ≥ 128 µg/mL.

On to `Clc1cc(Cl)cc(N2CCN(c3noc(-c4ccc5[nH]ccc5c4)n3)CC2)c1`, for which the MIC in [1] is ≥ 128 µg/mL.

Take `Cl.Nc1ccc(-c2noc(-c3ccc(O)cc3)n2)cc1`: the MIC in [1] was ≥ 256 µg/mL.

On to `CC(=O)Nc1ccc(-c2noc(-c3ccc(O)cc3)n2)cc1`, for which, in [1], the MIC is ≥ 500 µg/mL.

Take `O=C(Nc1ccc(-c2noc(-c3ccc(O)cc3)n2)cc1)c1ccccc1`: the MIC in [1] was ≥ 500 µg/mL.

`Oc1ccc(-c2nc(-c3ccc(N4CCNCC4)cc3)no2)cc1` yielded an MIC in assay [1] of 32 µg/mL (≈ 99.3 µM).

For the molecule `CN1CCN(c2ccc(-c3noc(-c4ccc(O)cc4)n3)cc2)CC1`, in assay [1], the MIC was ≥ 128 µg/mL.

In the case of `Oc1ccc(-c2nc(-c3ccc(N4CCOCC4)cc3)no2)cc1`, the MIC in [1] is ≥ 128 µg/mL.

With `CC(C)(C)OC(=O)N1CCN(c2ccc(-c3noc(-c4n[nH]cc4Cl)n3)cc2)CC1`, the MIC in [1] is ≥ 128 µg/mL.

As for `Clc1c[nH]nc1-c1nc(-c2ccc(N3CCNCC3)cc2)no1`, in assay [1], the MIC is ≥ 128 µg/mL.

In the case of `CN[C@H](CC(C)C)C(=O)N[C@H]1C(=O)N[C@@H](CC(N)=O)C(=O)N[C@H]2C(=O)N[C@H]3C(=O)N[C@H](C(=O)N[C@H](C(=O)O)c4cc(O)cc(O)c4-c4cc3ccc4O)[C@H](O)c3ccc(c(Cl)c3)Oc3cc2cc(c3O[C@@H]2O[C@H](CO)[C@@H](O)[C@H](O)[C@H]2O[C@H]2C[C@](C)(N)[C@H](O)[C@H](C)O2)Oc2ccc(cc2Cl)[C@H]1O` [VANCOMYCIN], the MIC in assay [2] was 1 µg/mL (≈ 0.69 µM); in assay [3], 64 µg/mL (≈ 44.2 µM); in assay [4], 2 µg/mL (≈ 1.38 µM); in assay [5], 16 µg/mL (≈ 11 µM); in [6] it was 128 µg/mL (≈ 88.3 µM); in assay [7] it was 512 µg/mL (≈ 353 µM). Further, the minimum inhibitory concentration (MIC) was determined as 256 µg/mL (≈ 177 µM) in [8] and 2 µg/mL (≈ 1.38 µM) in assay [9].

These data come from ChEMBL document CHEMBL3627682, “Exploration of the structure-activity relationship of 1,2,4-oxadiazole antibiotics” (2015).
